A short description of data set [1]: Drug substance and tablet retest date. The data set is classed as physicochemical. The conditions noted are these: drug substance, storage at 25° C. How it is done:
The vildagliptin drug substance (DS) is sensitive to moisture. Very tight packaging is necessary. Current retest date is 30 months with storage at 25° C.
For the CSF 100 mg, 150 mg and 200 mg strengths, the stability data are available up to 12 months at 25° C./60% RH and 30° 60% RH. […] The composition of vildagliptin 150 mg modified release tablets is bracketed by 100 mg and 200 mg strengths. Therefore, the stability of 150 mg tablets is expected to be same as 100 mg and 200 mg strengths. Thus a re-test period similar to that of 100 and 200 mg strengths is applied for 150 mg tablets.

Data set [2] in a line: Water solubility of drug substance. The data set is classed as physicochemical. Conditions: heading: water solubility. From the text: A once a day MR dosage form is likely to require a significant level of polymer load for retarding drug diffusion. During the development, the applicant has selected monolithic formulation with low risk for dose dumping, eliminating coating technologies in favor of a matrix formulation. After intensive studies on compatibility, ability to retard diffusion pharmacokinetic and pharmacodynamic studies, and regulatory acceptance requirements the applicant narrowed the polymer choice to hydrophilic polymers, especially hydroxpropyl methyl cellulose (HPMC).

The solubility is the dissolved amount per volume that the medium holds. Higher therefore signals a readily soluble substance.

Take `N#C[C@@H]1CCCN1C(=O)CNC12CC3CC(CC(O)(C3)C1)C2` [vildagliptin, 1-[(3-Hydroxy-adamant-1-ylamino)-acetyl]-pyrrolidine-2(S)-carbonitrile]: in data set [1], the retest date is 30 months. Further, the solubility in data set [2] was above 125 mg/mL.

Source of the values: US20110086096A1, “MODIFIED RELEASE 1- [ (3-HYDROXY-ADAMANT-1-YLAMINO)-ACETYL] -PYRROLIDINE-2 (S) -CARBONITRILE FORMULATION” (priority 2005, published 2011).
